# Measurements reported in ChEMBL document CHEMBL5226326, “Discovery of 1-Benzoyl 4-Phenoxypiperidines as Small-Molecule Inhibitors of the β-Catenin/B-Cell Lymphoma 9 Protein-Protein Interaction” (J Med Chem, 2021).
# Experiments:
# [1] = molecular target: T1, beta-catenin-B-cell lymphoma 9 protein complex (Homo sapiens, UniProt P35222); assay: Inhibition of full length beta-catenin (1 to 781 residues) (unknown origin) expressed in Escherichia coli BL21 (DE3)/N-terminal biotinylated human BCL9 HD2 (350 to 375 residues) protein-protein interaction incubated for 1 hr by Alphascreen assay
# T1 sequence (P35222 whole entry): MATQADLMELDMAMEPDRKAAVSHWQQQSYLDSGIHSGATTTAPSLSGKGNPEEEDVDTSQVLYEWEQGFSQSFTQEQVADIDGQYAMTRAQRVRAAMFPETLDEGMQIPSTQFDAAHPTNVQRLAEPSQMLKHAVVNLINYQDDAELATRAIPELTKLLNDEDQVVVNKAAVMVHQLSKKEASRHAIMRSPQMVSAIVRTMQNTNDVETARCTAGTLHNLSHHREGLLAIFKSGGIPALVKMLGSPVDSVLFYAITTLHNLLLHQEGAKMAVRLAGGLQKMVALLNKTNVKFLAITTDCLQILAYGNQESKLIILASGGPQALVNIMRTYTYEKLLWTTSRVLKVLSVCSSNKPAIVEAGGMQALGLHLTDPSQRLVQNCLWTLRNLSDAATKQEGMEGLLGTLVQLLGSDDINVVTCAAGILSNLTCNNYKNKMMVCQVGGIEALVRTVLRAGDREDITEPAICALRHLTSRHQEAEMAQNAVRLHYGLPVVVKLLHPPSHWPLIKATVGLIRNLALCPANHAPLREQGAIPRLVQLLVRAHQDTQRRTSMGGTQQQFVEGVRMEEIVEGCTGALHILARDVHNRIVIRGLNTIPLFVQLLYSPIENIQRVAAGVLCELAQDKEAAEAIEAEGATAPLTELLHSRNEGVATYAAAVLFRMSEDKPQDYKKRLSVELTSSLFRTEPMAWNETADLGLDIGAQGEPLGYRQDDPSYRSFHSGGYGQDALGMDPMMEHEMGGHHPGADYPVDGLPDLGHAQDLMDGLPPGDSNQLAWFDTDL
# T1 sequence (O00512 whole entry): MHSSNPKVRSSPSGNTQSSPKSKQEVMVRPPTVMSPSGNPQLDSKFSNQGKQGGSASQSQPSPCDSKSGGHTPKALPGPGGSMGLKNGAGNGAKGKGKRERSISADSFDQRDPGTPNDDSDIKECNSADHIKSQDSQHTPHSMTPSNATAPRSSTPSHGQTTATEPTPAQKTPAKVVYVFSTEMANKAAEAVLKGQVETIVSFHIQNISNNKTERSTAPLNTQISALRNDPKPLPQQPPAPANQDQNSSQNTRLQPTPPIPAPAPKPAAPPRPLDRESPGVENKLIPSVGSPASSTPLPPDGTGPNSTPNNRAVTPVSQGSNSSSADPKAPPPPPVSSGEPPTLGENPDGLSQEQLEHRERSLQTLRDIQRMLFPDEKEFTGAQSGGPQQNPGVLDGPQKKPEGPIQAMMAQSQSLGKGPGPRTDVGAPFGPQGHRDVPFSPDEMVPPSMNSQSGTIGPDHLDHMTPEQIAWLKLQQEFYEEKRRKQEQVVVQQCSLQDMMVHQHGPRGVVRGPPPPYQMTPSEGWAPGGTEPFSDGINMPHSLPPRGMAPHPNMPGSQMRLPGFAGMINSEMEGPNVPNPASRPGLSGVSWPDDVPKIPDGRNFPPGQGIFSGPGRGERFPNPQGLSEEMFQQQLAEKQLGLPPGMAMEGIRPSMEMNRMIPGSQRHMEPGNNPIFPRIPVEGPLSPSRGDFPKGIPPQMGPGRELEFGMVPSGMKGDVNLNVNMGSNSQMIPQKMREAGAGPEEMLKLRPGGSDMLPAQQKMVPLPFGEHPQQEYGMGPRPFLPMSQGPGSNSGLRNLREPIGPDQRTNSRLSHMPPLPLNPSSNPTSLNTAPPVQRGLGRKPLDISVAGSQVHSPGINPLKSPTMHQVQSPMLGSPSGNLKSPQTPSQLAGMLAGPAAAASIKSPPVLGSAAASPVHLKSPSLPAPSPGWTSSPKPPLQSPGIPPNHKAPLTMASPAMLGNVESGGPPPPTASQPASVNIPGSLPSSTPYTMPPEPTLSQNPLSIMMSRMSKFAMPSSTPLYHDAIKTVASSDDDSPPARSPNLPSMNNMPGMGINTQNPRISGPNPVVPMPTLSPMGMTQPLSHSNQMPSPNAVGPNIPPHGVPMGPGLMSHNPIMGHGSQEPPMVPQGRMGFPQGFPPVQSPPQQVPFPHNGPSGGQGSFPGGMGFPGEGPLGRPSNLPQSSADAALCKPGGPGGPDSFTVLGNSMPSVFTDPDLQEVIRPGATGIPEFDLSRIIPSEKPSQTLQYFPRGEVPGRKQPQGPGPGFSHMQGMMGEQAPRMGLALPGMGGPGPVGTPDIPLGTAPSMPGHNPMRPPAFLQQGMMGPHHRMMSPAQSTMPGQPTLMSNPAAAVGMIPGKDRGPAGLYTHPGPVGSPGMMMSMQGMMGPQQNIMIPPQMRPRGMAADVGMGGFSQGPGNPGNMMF
# [2] = molecular target: T1, beta-catenin-B-cell lymphoma 9 protein complex; assay: Inhibition of full length beta-catenin (1 to 781 residues) (unknown origin) expressed in Escherichia coli BL21 (DE3)/N-terminal biotinylated human BCL9 HD2 (350 to 375 residues) protein-protein interaction assessed as inhibition constant incubated for 1 hr by Alphascreen assay
SMILES,IC50 [1] [µM],Ki [2] [µM]
O=C(c1ccc(O[C@H]2CCNC2)c(C2CCCCC2)c1)N1CCC(Oc2cc(F)cc(N3CCC4(CC3)CNC4)c2)CC1,> 100,> 84
O=C(c1ccc(O[C@@H]2CCNC2)c(C2CCCCC2)c1)N1CCC(Oc2cc(F)cc(N3CCNCC3)c2)CC1,64,52
O=C(c1ccc(O[C@H]2CCNC2)c(C2CCCCC2)c1)N1CCC(Oc2cc(F)cc(N3CCNCC3=O)c2)CC1,> 100,> 84
NCCC(=O)Nc1cc(F)cc(OC2CCN(C(=O)c3ccc(O[C@H]4CCNC4)c(C4CCCCC4)c3)CC2)c1,69,62
CN(C)Cc1cn(Cc2cc(F)cc(OC3CCN(C(=O)c4ccc(O[C@H]5CCNC5)c(C5CCCCC5)c4)CC3)c2)nn1,80,72
CC(C)(C)C1CCC(c2cc(C(=O)N3CCC(Oc4cc(N5CCNCC5)ccc4C#N)CC3)ccc2O[C@H]2CCNC2)CC1 (mixture of isomers; 44),3.3,2.7
O=C(c1ccc(O[C@H]2CCNC2)c(C2CCCCC2)c1)N1CCC(Oc2cc(F)cc(N3CCNCC3)c2)CC1,57,46
O=C(c1ccc(O[C@H]2CCNC2)c(C2CCCCC2)c1)N1CCC(Oc2cc(F)cc(N3CC4(CCNCC4)C3)c2)CC1,> 100,> 84
O=C(c1ccc(O[C@H]2CCNC2)c(C2CCCCC2)c1)N1CCC(Oc2cc(F)cc(N3C[C@H]4CNC[C@H]4C3)c2)CC1,> 100,> 84
NCCCC(=O)Nc1cc(F)cc(OC2CCN(C(=O)c3ccc(O[C@H]4CCNC4)c(C4CCCCC4)c3)CC2)c1,73,66
O=C(c1ccc(O[C@H]2CCNC2)c(-c2ccccc2)c1)N1CCC(Oc2cc(F)cc(N3CCNCC3)c2)CC1,47,42
O=C(c1cc(F)cc(N2CCNCC2)c1)N1CCN(C(=O)c2ccc(O[C@@H]3CCNC3)c(C3CCCCC3)c2)CC1,≥ 60,50
CC(C)(C)C1CCC(c2cc(C(=O)N3CCC(Oc4cc(N5CCNCC5)ccc4C(N)=O)CC3)ccc2O[C@H]2CCNC2)CC1 (mixture of isomers),20,16
CNC(=O)c1ccc(N2CCNCC2)cc1OC1CCN(C(=O)c2ccc(O[C@H]3CCNC3)c(C3CCC(C(C)(C)C)CC3)c2)CC1 (mixture of isomers),47,38
CC(C)(C)C(=O)N1CCC(c2cc(C(=O)N3CCC(Oc4cc(F)cc(N5CCNCC5)c4)CC3)ccc2O[C@H]2CCNC2)CC1,> 100,> 84
CC(C)(C)C1CCC(c2cc(C(=O)N3CCC(Oc4cc(N5CCNCC5)ccc4C(=O)O)CC3)ccc2O[C@H]2CCNC2)CC1 (stereo partly specified),> 100,> 84
CC(O)C(=O)N1CCC(c2cc(C(=O)N3CCC(Oc4cc(F)cc(N5CCNCC5)c4)CC3)ccc2O[C@H]2CCNC2)CC1 (stereo partly specified),37,34
CN(C)C(=O)c1ccc(N2CCNCC2)cc1OC1CCN(C(=O)c2ccc(O[C@H]3CCNC3)c(C3CCC(C(C)(C)C)CC3)c2)CC1 (mixture of isomers),> 100,> 84
CC(C)C(=O)N1CCC(c2cc(C(=O)N3CCC(Oc4cc(F)cc(N5CCNCC5)c4)CC3)ccc2O[C@H]2CCNC2)CC1,35,31
CC(C)(CN)C(=O)NCc1cc(F)cc(OC2CCN(C(=O)c3ccc(O[C@H]4CCNC4)c(C4CCCCC4)c3)CC2)c1,> 100,> 84
NCc1cn(Cc2cc(F)cc(OC3CCN(C(=O)c4ccc(O[C@H]5CCNC5)c(C5CCCCC5)c4)CC3)c2)nn1,> 100,> 84
NCCC(=O)NCc1cc(F)cc(OC2CCN(C(=O)c3ccc(O[C@H]4CCNC4)c(C4CCCCC4)c3)CC2)c1,> 100,> 84
O=C(c1ccc(OC2CCNCC2)c(C2CCCCC2)c1)N1CCC(Oc2cc(F)cc(N3CCNCC3)c2)CC1,> 100,> 84
CC(C)(C)C1CCC(c2cc(C(=O)N3CCC(Oc4cc(N5CCNCC5)ccc4C#N)CC3)ccc2O[C@H]2CCNC2)CC1 (mixture of isomers; 36),1.5,1.2
O=C(c1ccc(O[C@H]2CCNC2)c(C2CCOCC2)c1)N1CCC(Oc2cc(F)cc(N3CCNCC3)c2)CC1,> 100,> 84

# Now from value to compound:
IC50 [1] [µM],Ki [2] [µM],SMILES
4.3,3.6,CC(C)(C)C1CCC(c2cc(C(=O)N3CCC(Oc4cc(Cl)cc(N5CCNCC5)c4)CC3)ccc2O[C@H]2CCNC2)CC1 (mixture of isomers)
2.7,2.2,CC(C)(C)C1CCC(c2cc(C(=O)N3CCC(Oc4cc(N5CCNCC5)ccc4Cl)CC3)ccc2O[C@H]2CCNC2)CC1 (mixture of isomers)
18,16,O=C(c1ccc(O[C@H]2CCNC2)c(-c2ccc(C(F)(F)F)cc2)c1)N1CCC(Oc2cc(F)cc(N3CCNCC3)c2)CC1
20,13,O=C(c1ccc(O[C@H]2CCNC2)c(C2CCC(C(F)(F)F)CC2)c1)N1CCC(Oc2cc(F)cc(N3CCNCC3)c2)CC1 (mixture of isomers)
20,17,CC(C)(C)C1CCC(c2cc(C(=O)N3CCC(Oc4cccc(N5CCNCC5)c4)CC3)ccc2O[C@H]2CCNC2)CC1 (mixture of isomers)
3.7,3.1,CC(C)(C)C1CCC(c2cc(C(=O)N3CCC(Oc4cc(N5CCNCC5)cc(F)c4F)CC3)ccc2O[C@H]2CCNC2)CC1 (mixture of isomers)
11,10,O=C(c1ccc(O[C@H]2CCNC2)c(-c2ccc3cn[nH]c3c2)c1)N1CCC(Oc2cc(F)cc(N3CCNCC3)c2)CC1
4.5,4,O=C(c1ccc(O[C@H]2CCNC2)c(-c2ccc3ccsc3c2)c1)N1CCC(Oc2cc(F)cc(N3CCNCC3)c2)CC1
8.8,7.9,O=C(c1ccc(O[C@H]2CCNC2)c(-c2ccc3[nH]ncc3c2)c1)N1CCC(Oc2cc(F)cc(N3CCNCC3)c2)CC1
11,10,CC(C)(C)c1ccc(-c2cc(C(=O)N3CCC(Oc4cc(F)cc(N5CCNCC5)c4)CC3)ccc2O[C@H]2CCNC2)cc1
3.6,3.2,CC(C)(C)C1CCC(c2cc(C(=O)N3CCC(Oc4cc(F)cc(N5CCNCC5)c4)CC3)ccc2O[C@H]2CCNC2)CC1 (mixture of isomers)
6.7,5.6,CC(C)(C)C1CCC(c2cc(C(=O)N3CCC(Oc4ccc(F)c(N5CCNCC5)c4)CC3)ccc2O[C@H]2CCNC2)CC1 (mixture of isomers)
17,14,COC(=O)c1ccc(N2CCNCC2)cc1OC1CCN(C(=O)c2ccc(O[C@H]3CCNC3)c(C3CCC(C(C)(C)C)CC3)c2)CC1 (mixture of isomers)
